This passage reports IC50 results from US20100056563A1, “NOVEL 1.8-NAPHTHYRIDINE COMPOUNDS” (priority 2007, published 2010).

T1 sequence (Q9GZT9 whole entry): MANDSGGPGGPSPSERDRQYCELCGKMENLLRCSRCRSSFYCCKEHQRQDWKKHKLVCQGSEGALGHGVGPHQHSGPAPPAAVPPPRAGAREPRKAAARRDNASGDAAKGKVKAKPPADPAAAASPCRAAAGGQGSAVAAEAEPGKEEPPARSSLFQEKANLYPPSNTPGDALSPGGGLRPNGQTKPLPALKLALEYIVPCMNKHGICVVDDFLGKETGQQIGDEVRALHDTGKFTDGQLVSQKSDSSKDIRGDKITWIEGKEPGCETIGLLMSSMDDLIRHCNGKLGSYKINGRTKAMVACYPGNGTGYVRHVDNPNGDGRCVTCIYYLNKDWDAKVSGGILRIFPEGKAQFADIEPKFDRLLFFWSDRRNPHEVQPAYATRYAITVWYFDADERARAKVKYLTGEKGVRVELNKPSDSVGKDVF

This assay has as its target T1, FLAG-tagged full length PHD2 (Homo sapiens, UniProt Q9GZT9).
T1 construct: FLAG-tagged full length PHD2; FLAG; made in house; host or cells: baculovirus-infected Sf9 cells
Description: HIF-PHD2 time resolved fluorescence inhibition assay (HIF-1α peptide hydroxylation, VHL complex detection). It counts as biochemical. As to conditions: 0.2 μM 2-oxoglutarate, 0.5 μM HIF-1α peptide, 2 hr at room temperature. The method, then: To each well of a 96-well plate was added […] of test compound in DMSO and 20 μl of assay buffer (50 mM Tris pH 7.4/0.01% Tween-20/0.1 mg/ml bovine serum albumin/10 μM ferrous sulfate/1 mM sodium ascorbate/20 μg/ml catalase) containing 0.15 μg/ml FLAG-tagged full length PHD2 expressed in and purified from baculovirus-infected Sf9 cells. After a […] preincubation at room temperature, the enzymatic reactions were initiated by the addition of 4 μL of substrates (final concentrations of 0.2 μM 2-oxoglutarate and 0.5 μM HIF-1α peptide biotinyl-DLDLEMLAPYIPMDDDFQL). After 2 hr at room temperature, the reactions were terminated and signals were developed by the addition of a 25 μL quench/detection mix to a final concentration of 1 mM ortho-phenanthroline, 0.1 mM EDTA, 0.5 nM anti-(His)6 LANCE reagent (Perkin-Elmer Life Sciences), 100 nM AF647-labeled streptavidin (Invitrogen), and 2 μg/ml (His)6-VHL complex (S. Tan (2001) Protein Expr. Purif. 21, 224-234). The ratio of time resolved fluorescence signals at 665 and 620 nm was determined, and percent inhibition was calculated relative to an uninhibited control sample run in parallel.
One may read the IC50 as the concentration that inhibits the measured activity by half. `C[C@H](NC(=O)c1c(O)c2cccnc2n(Cc2ccc(C(F)(F)F)cc2)c1=O)C(=O)O` [Example 11, N-({4-Hydroxy-2-oxo-1-[4-(trifluoromethyl)benzyl]-1,2-dihydro-1,8-naphthyridin-3-yl}carbonyl)-L-alanine] had an IC50 of 6 nM.

In turn, `O=C(O)CNC(=O)c1c(O)c2cccnc2n(Cc2ccc(Br)cc2)c1=O` [Example 3, N-{[1-(4-Bromobenzyl)-4-hydroxy-2-oxo-1,2-dihydro-1,8-naphthyridin-3-yl]carbonyl}glycine] had an IC50 of 1.9 nM.

In the case of `O=C(O)C[C@H](NC(=O)c1c(O)c2cccnc2n(Cc2ccc(C(F)(F)F)cc2)c1=O)C(=O)O` [Example 15, N-({1-[4-(trifluoromethyl)benzyl]-4-hydroxy-2-oxo-1,2-dihydro-1,8-naphthyridin-3-yl}carbonyl)-L-aspartic acid], inhibition was half-maximal at 25 nM (IC50).

Compound `O=C(O)CNC(=O)c1c(O)c2cccnc2n(Cc2nc3cc(Cl)ccc3s2)c1=O` [Example 24, N-({1-[(5-Chloro-1,3-benzothiazol-2-yl)methyl]-4-hydroxy-2-oxo-1,2-dihydro-1,8-naphthyridin-3-yl}carbonyl)glycine] yielded an IC50 of 1.1 nM.

For `N#Cc1cnc2c(c1)c(O)c(C(=O)NCC(=O)O)c(=O)n2Cc1ccc(C(F)(F)F)cc1` [Example 10, N-({6-Cyano-4-hydroxy-2-oxo-1-[4-(trifluoromethyl)benzyl]-1,2-dihydro-1,8-naphthyridin-3-yl}carbonyl)glycine], the IC50 amounted to 1.2 nM.

Compound `O=C(N[C@@H](CO)C(=O)O)c1c(O)c2cccnc2n(Cc2ccc(C(F)(F)F)cc2)c1=O` [Example 14, N-({1-[4-(trifluoromethyl)benzyl]-4-hydroxy-2-oxo-1,2-dihydro-1,8-naphthyridin-3-yl}carbonyl)-L-serine] had an IC50 of 160 nM.

For the compound `C[C@H](NC(=O)c1c(O)c2cccnc2n(Cc2ccc(C(F)(F)F)nc2)c1=O)C(=O)O` [Example 38, (2S)-2-{[(4-Hydroxy-2-oxo-1-{[6-(trifluoromethyl)pyridin-3-yl]methyl}-1,2-dihydro-1,8-naphthyridin-3-yl)carbonyl]amino}propanoic acid], the IC50 stood at 2.7 nM.

In turn, `O=C(O)CNC(=O)c1c(O)c2cccnc2n(Cc2nc(-c3ccccc3)cs2)c1=O` [Example 22, N-({4-Hydroxy-2-oxo-1-[(4-phenyl-1,3-thiazol-2-yl)methyl]-1,2-dihydro-1,8-naphthyridin-3-yl}carbonyl)glycine] showed an IC50 of 0.8 nM.

The compound `CC[C@H](NC(=O)c1c(O)c2cccnc2n(Cc2ccc(C(F)(F)F)cc2)c1=O)C(=O)O` [Example 17, (2S)-2-[({4-Hydroxy-2-oxo-1-[4-(trifluoromethyl)benzyl]-1,2-dihydro-1,8-naphthyridin-3-yl}carbonyl)amino]butanoic acid] had an IC50 of 160 nM.

With `O=C(O)CNC(=O)c1c(O)c2cccnc2n(Cc2nc3ccccc3s2)c1=O` [Example 8, N-{[1-(1,3-Benzothiazol-2-ylmethyl)-4-hydroxy-2-oxo-1,2-dihydro-1,8-naphthyridin-3-yl]carbonyl}glycine], it took 0.7 nM to reach half-maximal inhibition (IC50).

The compound `COc1ccc2c(O)c(C(=O)NCC(=O)O)c(=O)n(Cc3ccc(C(F)(F)F)cc3)c2n1` [Example 7, N-({4-Hydroxy-7-methoxy-2-oxo-1-[4-(trifluoromethyl)benzyl]-1,2-dihydro-1,8-naphthyridin-3-yl}carbonyl)glycine] returned an IC50 of 1.5 nM.

As to `Cc1nc(Cn2c(=O)c(C(=O)NCC(=O)O)c(O)c3cccnc32)sc1C` [Example 26, N-({1-[(4,5-Dimethyl-1,3-thiazol-2-yl)methyl]-4-hydroxy-2-oxo-1,2-dihydro-1,8-naphthyridin-3-yl}carbonyl)glycine], it took 1.3 nM to reach half-maximal inhibition (IC50).

In the case of `O=C(O)CNC(=O)c1c(O)c2cc(Cl)cnc2n(Cc2nc3ccccc3s2)c1=O` [Example 40, ({[1-(1,3-Benzothiazol-2-ylmethyl)-6-chloro-4-hydroxy-2-oxo-1,2-dihydro-1,8-naphthyridin-3-yl]carbonyl}amino)acetic acid], the IC50 was 1.5 nM.

The compound `O=C(O)CNC(=O)c1c(O)c2cc(Cl)cnc2n(Cc2ccc(C(F)(F)F)nc2)c1=O` [Example 29, {[(6-Chloro-4-hydroxy-2-oxo-1-{[6-(trifluoromethyl)pyridin-3-yl]methyl}-1,2-dihydro-1,8 naphthyridin-3-yl)carbonyl]amino}acetic acid] came in with an IC50 of 0.65 nM.

Compound `N#Cc1ccc(Cn2c(=O)c(C(=O)NCC(=O)O)c(O)c3cccnc32)cc1` [Example 4, N-{[1-(4-Cyanobenzyl)-4-hydroxy-2-oxo-1,2-dihydro-1,8-naphthyridin-3-yl]carbonyl}glycine] had an IC50 of 1.6 nM.

`C#CCn1c(=O)c(C(=O)NCC(=O)O)c(O)c2cccnc21` [Example 18, N-[(4-Hydroxy-2-oxo-1-prop-2-yn-1-yl-1,2-dihydro-1,8-naphthyridin-3-yl)carbonyl]glycine] returned an IC50 of 21 nM.

Consider `C[C@H](NC(=O)c1c(O)c2cccnc2n(Cc2nc3ccccc3s2)c1=O)C(=O)O` [Example 30, (2S)-2-({[1-(1,3-Benzothiazol-2-ylmethyl)-4-hydroxy-2-oxo-1,2-dihydro-1,8-naphthyridin-3-yl]carbonyl}amino)propanoic acid], for which half-maximal inhibition (IC50) required 2.7 nM.

In turn, `O=C(O)CNC(=O)c1c(O)c2cccnc2n(Cc2noc(-c3ccccc3)n2)c1=O` [Example 20, N-({4-Hydroxy-2-oxo-1-[(5-phenyl-1,2,4-oxadiazol-3-yl)methyl]-1,2-dihydro-1,8-naphthyridin-3-yl}carbonyl)glycine] came in with an IC50 of 0.9 nM. Compared with the last compound, the IC50 is about 3-fold lower.

`Cc1ccc(Cn2c(=O)c(C(=O)NCC(=O)O)c(O)c3cccnc32)cc1` [Example 5, N-{[1-(4-Methylbenzyl)-4-hydroxy-2-oxo-1,2-dihydro-1,8-naphthyridin-3-yl]carbonyl}glycine] returned a half-maximal inhibitory concentration (IC50) of 1.8 nM.

`CCOC(=O)Cn1c(=O)c(C(=O)NCC(=O)O)c(O)c2cccnc21` [Example 23, N-{[1-(2-Ethoxy-2-oxoethyl)-4-hydroxy-2-oxo-1,2-dihydro-1,8-naphthyridin-3-yl]carbonyl}glycine] returned an IC50 of 8.5 nM.

As to `O=C(O)CNC(=O)c1c(O)c2cccnc2n(Cc2nnc(-c3ccccc3)o2)c1=O` [Example 27, N-({4-Hydroxy-2-oxo-1-[(5-phenyl-1,3,4-oxadiazol-2-yl)methyl]-1,2-dihydro-1,8-naphthyridin-3-yl}carbonyl)glycine], the IC50 was 2.6 nM.

`O=C(O)CNC(=O)c1c(O)c2cccnc2n(Cc2ccc(C(F)(F)F)cc2F)c1=O` [Example 6, N-{[1-(2-Fluoro-4-trifluoromethylbenzyl)-4-hydroxy-2-oxo-1,2-dihydro-1,8-naphthyridin-3-yl]carbonyl}glycine]: the 50% inhibitory concentration (IC50) came to 1.6 nM.

With `C[C@@H](NC(=O)c1c(O)c2cccnc2n(Cc2ccc(C(F)(F)F)cc2)c1=O)C(=O)O` [Example 12, N-({4-Hydroxy-2-oxo-1-[4-(trifluoromethyl)benzyl]-1,2-dihydro-1,8-naphthyridin-3-yl}carbonyl)-D-alanine], half-maximal inhibition (IC50) required 1100 nM.

`O=C(O)CNC(=O)c1c(O)c2cc(I)cnc2n(Cc2ccc(C(F)(F)F)cc2)c1=O` [Example 9, N-({4-Hydroxy-6-iodo-2-oxo-1-[4-(trifluoromethyl)benzyl]-1,2-dihydro-1,8-naphthyridin-3-yl}carbonyl)glycine] displayed an IC50 of 1.3 nM.

The compound `O=C(O)CNC(=O)c1c(O)c2cccnc2n(Cc2nc(-c3ccccc3)no2)c1=O` [Example 21, N-({4-Hydroxy-2-oxo-1-[(3-phenyl-1,2,4-oxadiazol-5-yl)methyl]-1,2-dihydro-1,8-naphthyridin-3-yl}carbonyl)glycine] yielded an IC50 of 0.8 nM.

In turn, `O=C(O)CNC(=O)c1c(O)c2cccnc2n(Cc2cc(-c3ccccc3)no2)c1=O` [Example 19, N-({4-Hydroxy-2-oxo-1-[(3-phenylisoxazol-5-yl)methyl]-1,2-dihydro-1,8-naphthyridin-3-yl}carbonyl)glycine] displayed an IC50 of 0.4 nM.

For `C[C@H](NC(=O)c1c(O)c2cccnc2n(Cc2nc3cc(Cl)ccc3s2)c1=O)C(=O)O` [Example 35, (2S)-2-[({1-[(5-Chloro-1,3-benzothiazol-2-yl)methyl]-4-hydroxy-2-oxo-1,2-dihydro-1,8-naphthyridin-3-yl}carbonyl)amino]propanoic acid], the IC50 worked out at 5.9 nM.

The compound `NC(=O)c1ccc(Cn2c(=O)c(C(=O)NCC(=O)O)c(O)c3cccnc32)cc1` [Example 13, N-({1-[4-(Aminocarbonyl)benzyl]-4-hydroxy-2-oxo-1,2-dihydro-1,8-naphthyridin-3-yl}carbonyl)glycine] gave an IC50 of 1.2 nM.

Compound `O=C(O)CNC(=O)c1c(O)c2cccnc2n(Cc2ccc(Cl)cc2)c1=O` [Example 2, N-{[1-(4-Chlorobenzyl)-4-hydroxy-2-oxo-1,2-dihydro-1,8-naphthyridin-3-yl]carbonyl}glycine] returned an IC50 of 1.6 nM.

For the compound `O=C(O)CNC(=O)c1c(O)c2cccnc2n(Cc2ccc(C(F)(F)F)nc2)c1=O` [Example 28, {[(4-Hydroxy-2-oxo-1-{[6-(trifluoromethyl)pyridin-3-yl]methyl}-1,2-dihydro-1,8 naphthyridin-3-yl)carbonyl}amino}acetic acid], 0.85 nM corresponded to half-maximal inhibition (IC50).
